In BindingDB's records for patent US20230365537 (Oric Pharmaceuticals, 2023):
“And” between values parts separate entries of the source, which are not always exact repeats. Identical values can stand only once.

Experiments:
Aurora kinase A = molecular target: T1, Aurora kinase A (Homo sapiens, UniProt O14965); assay: Aurora A Kinase Biochemical Assay
T1 sequence (O14965 whole entry): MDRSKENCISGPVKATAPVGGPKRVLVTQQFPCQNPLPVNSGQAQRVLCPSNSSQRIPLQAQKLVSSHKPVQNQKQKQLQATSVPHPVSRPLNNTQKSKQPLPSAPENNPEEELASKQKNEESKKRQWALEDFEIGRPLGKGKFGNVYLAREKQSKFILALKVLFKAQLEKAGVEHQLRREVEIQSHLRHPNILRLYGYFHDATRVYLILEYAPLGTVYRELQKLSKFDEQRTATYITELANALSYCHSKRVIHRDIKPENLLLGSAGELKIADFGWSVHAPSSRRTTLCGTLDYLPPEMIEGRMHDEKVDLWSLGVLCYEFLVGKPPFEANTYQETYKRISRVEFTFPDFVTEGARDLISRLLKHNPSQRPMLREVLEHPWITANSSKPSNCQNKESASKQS
Procedure: (§1) Activity of human recombinant Aurora A (ThermoFisher, cat #PR5935A) was measured by quantification of adenosine diphosphate (ADP) using the ADP-Glo Kinase Assay Kit (Promega, cat #V9102). […] 5 µL of 5.0 nM Aurora A in assay buffer (50 mM HEPES, pH 7.5, 0.01% Brij-35, 0.01% BSA, 10 mM MgCl2, 1 mM EGTA, 1 mM DTT) was added to the plates. Test compounds and Aurora A were incubated for 15 minutes at room temperature (RT). […] Reactions were stopped and the remaining ATP depleted by adding 10uL of ADP-Glo reagent (Promega, cat#V912B) and incubating for 40 minutes at RT. The simultaneous conversion of the remaining ADP to ATP and measurement of the newly synthesized ATP was achieved by addition of 20 µL Kinase Detection reagent (Promega, cat #V914B), incubation for 30 min at RT, and luminescence detection using the EnVision plate reader (PerkinElmer). […] The IC50 values reported in Table 2 were determined using four parameter non-linear regression curve fit.

Aurora kinase B = Aurora kinase B (Homo sapiens, UniProt Q96GD4); assay: Aurora B Kinase Biochemical Assay
Aurora kinase B, sequence (Q96GD4 whole entry): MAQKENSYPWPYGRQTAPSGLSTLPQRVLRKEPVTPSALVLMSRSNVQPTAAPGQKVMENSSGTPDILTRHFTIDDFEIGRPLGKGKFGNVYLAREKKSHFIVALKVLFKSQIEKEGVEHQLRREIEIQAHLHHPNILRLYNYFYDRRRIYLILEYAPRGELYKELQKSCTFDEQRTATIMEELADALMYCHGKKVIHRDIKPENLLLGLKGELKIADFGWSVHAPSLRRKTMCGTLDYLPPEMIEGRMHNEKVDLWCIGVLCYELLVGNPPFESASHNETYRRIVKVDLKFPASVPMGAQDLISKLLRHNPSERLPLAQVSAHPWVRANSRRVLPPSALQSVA
Procedure: as §1, with “Aurora B” for “Aurora A”, “cat #PR9210B)” for “cat #PR5935A)”, “of 20” for “of 5.0”, “parameter” for “parameter non-linear regression curve fit.”

[1] = molecular target: T2, Serine/threonine-protein kinase PLK4 (Homo sapiens, UniProt O00444); assay: PLK4 Biochemical Assay
T2 sequence (O00444 whole entry): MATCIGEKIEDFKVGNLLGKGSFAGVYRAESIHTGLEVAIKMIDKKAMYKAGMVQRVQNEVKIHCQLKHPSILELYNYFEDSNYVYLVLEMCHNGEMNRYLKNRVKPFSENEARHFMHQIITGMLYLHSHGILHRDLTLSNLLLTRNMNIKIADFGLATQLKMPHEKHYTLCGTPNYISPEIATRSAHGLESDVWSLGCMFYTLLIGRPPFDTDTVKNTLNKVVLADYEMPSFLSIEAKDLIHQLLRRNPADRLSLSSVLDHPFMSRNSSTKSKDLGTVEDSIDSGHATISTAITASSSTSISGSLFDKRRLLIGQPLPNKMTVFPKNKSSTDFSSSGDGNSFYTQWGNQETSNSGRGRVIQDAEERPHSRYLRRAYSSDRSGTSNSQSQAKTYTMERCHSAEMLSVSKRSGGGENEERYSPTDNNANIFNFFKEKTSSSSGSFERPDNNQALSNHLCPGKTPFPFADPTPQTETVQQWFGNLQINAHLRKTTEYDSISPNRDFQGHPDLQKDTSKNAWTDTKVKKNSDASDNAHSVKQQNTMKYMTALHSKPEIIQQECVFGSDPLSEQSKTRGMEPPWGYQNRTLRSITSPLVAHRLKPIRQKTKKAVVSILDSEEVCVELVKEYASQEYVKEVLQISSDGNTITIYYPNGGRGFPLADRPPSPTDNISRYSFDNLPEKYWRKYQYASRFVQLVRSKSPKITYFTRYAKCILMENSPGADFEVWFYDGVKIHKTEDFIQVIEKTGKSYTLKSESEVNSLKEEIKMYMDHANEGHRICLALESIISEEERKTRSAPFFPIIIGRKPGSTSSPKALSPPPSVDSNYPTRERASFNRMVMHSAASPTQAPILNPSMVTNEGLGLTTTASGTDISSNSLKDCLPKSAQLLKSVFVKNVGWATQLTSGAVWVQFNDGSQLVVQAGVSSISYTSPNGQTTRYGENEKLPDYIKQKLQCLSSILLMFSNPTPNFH
Procedure: as §1, with “recombinant PLK4” for “recombinant Aurora A”, “cat #PV6396)” for “cat #PR5935A)”, “of 1.0” for “of 5.0”, “nM PLK4 protein” for “nM Aurora A”, “and PLK4” for “and Aurora A”, “adding 10 µL” for “adding 10uL”

Compound	IC50 (Aurora kinase A)	IC50 (Aurora kinase B)	IC50 [1]
COc1ccc2c(c1)[C@]1(C[C@H]1c1ccc3c(Nc4ccc(S(C)(=O)=O)nc4OC)n[nH]c3c1)C(=O)N2 [US20230365537, Example 168]	1860 nM and 2030 nM	521 nM and 1060 nM	–
COc1ccc2c(c1)[C@]1(C[C@H]1c1ccc3c(Nc4cc(N5CCN(C)C5=O)cnc4OC)n[nH]c3c1)C(=O)N2 [US20230365537, Example 221]	–	–	2.8 nM
COc1ccc2c(c1)[C@]1(C[C@H]1c1ccc3c(Nc4cc(S(=O)(=O)C5CCOCC5)ccc4OC)n[nH]c3c1)C(=O)N2 [US20230365537, Example 224]	–	–	4.02 nM
